Key:
bedstraw = experiment: Test B pre/postemergence bedstraw; assay type: in vivo, Galium aparine
How it was run: (§1)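 Herbicidal effect was estimated by eye on a ten-point control scale after plants spent twelve to sixteen days in a greenhouse following soil or foliar treatment. Foliar sprays targeted plants at one to four leaves; all doses were formulated in a non-phytotoxic solvent with surfactant.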

blackgrass = experiment: Test B pre/postemergence blackgrass; assay type: in vivo, Alopecurus myosuroides
How it was run: as §1

surinam grass = experiment: Test B pre/postemergence surinam grass; assay type: in vivo, Brachiaria decumbens
How it was run: as §1

cocklebur = experiment: Test B pre/postemergence cocklebur; assay type: in vivo, Xanthium strumarium; settings: for Cocklebur plant response rating: Postemergence; for Plant response rating, Cocklebur: Preemergence
How it was run: as §1

corn = experiment: Test B pre/postemergence corn; assay type: in vivo, Zea mays
How it was run: as §1

crabgrass = experiment: Test B pre/postemergence crabgrass; assay type: in vivo, Digitaria sanguinalis
How it was run: as §1

giant foxtail = experiment: Test B pre/postemergence giant foxtail; assay type: in vivo, Setaria faberii
How it was run: as §1

pigweed = experiment: Test B pre/postemergence pigweed; assay type: in vivo, Amaranthus retroflexus
How it was run: as §1

soybean = experiment: Test B pre/postemergence soybean; assay type: in vivo, Glycine max
How it was run: as §1

sugar beet = experiment: Test B pre/postemergence sugar beet; assay type: in vivo, Beta vulgaris
How it was run: as §1

velvetleaf = experiment: Test B pre/postemergence velvetleaf; assay type: in vivo, Abutilon theophrasti
How it was run: as §1

wheat = experiment: Test B pre/postemergence wheat; assay type: in vivo, Triticum aestivum
How it was run: as §1

wild oat = experiment: Test B pre/postemergence wild oat; assay type: in vivo, Avena fatua
How it was run: as §1

purple nutsedge = experiment: Test B pre/postemergence purple nutsedge; assay type: in vivo, Cyperus rotundus
How it was run: as §1

rice = experiment: Test B flood test rice; assay type: in vivo, Oryza sativa
How it was run: (§2)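 Read-out is a visual response score from 0 (no effect) to 10 (complete control), assigned by comparison with untreated controls. Treatment was applied at the 2-leaf stage, and plants stayed in the greenhouse for twelve to sixteen days before scoring.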

duck salad = experiment: Test B flood test duck salad; assay type: in vivo, Heteranthera limosa
How it was run: as §2

[1] = Postemergence, Rate 62 g/ha, scale 0 to 10, 0 is no effect, 10 is complete control
[2] = Preemergence, Rate 62 g/ha, scale 0 to 10, 0 is no effect, 10 is complete control
[3] = Preemergence, Rate 125 g/ha, scale 0 to 10 (0 no effect, 10 complete control)
[4] = Preemergence, Rate 500 g/ha, scale 0 (no effect) to 10 (complete control)
[5] = Postemergence, Rate 250 g/ha, scale 0 to 10, 0 no effect, 10 complete control
[6] = Preemergence, Rate 250 g/ha, scale of 0 to 10 where 0 is no effect and 10 is complete control
[7] = Rate 125 g/ha, Postemergence, scale 0 to 10, 0 no effect, 10 complete control
[8] = Rate 500 g/ha, Postemergence, 0 to 10 scale (0 no effect, 10 complete control)
[9] = Rate 62 g/ha, scale 0 to 10, 0 is no effect, 10 is complete control
[10] = Rate 125 g/ha, Postemergence section (flood test species), scale 0 to 10, 0 no effect, 10 complete control
[11] = Rate 250 g/ha, headed Pre-emergence (flood test species), scale 0 to 10 (0 no effect, 10 complete control)
[12] = Rate 500 g/ha, Postemergence section of Table B, 0 to 10 scale (0 no effect, 10 complete control)
[13] = Rate 500 g/ha, headed Pre-emergence (flood test species), scale 0 to 10 (0 no effect, 10 complete control)
[14] = Rate 1000 g/ha, Pre-emergence (as headed), scale 0 to 10
[15] = Rate 2000 g/ha, Pre-emergence (as headed), scale 0 to 10
[16] = flood test, listed under Postemergence, Rate 250 g/ha, scale 0 to 10, 0 no effect, 10 complete control

Cc1ccccc1-n1c(=O)on(C(=O)N(c2ccccc2)C(C)C)c1=O [Compound 36]
Bedstraw plant response rating (bedstraw; [1]): 0
Plant response rating, Bedstraw (bedstraw; [2]): 0
Plant response rating, Bedstraw (bedstraw; [3]): 0
Bedstraw plant response rating (bedstraw; [4]): 0
Blackgrass plant response rating (blackgrass; [1]): 0
Blackgrass plant response rating (blackgrass; [5]): 4
Plant response rating, Blackgrass (blackgrass; [2]): 4
Plant response rating, Blackgrass (blackgrass; [3]): 5
Plant response rating, Blackgrass (blackgrass; [6]): 6
Blackgrass plant response rating (blackgrass; [4]): 7
Blackgrass plant response rating (blackgrass; [7]): 3
Blackgrass plant response rating (blackgrass; [8]): 6
B. signalgrass plant response rating (surinam grass; [1]): 0
B. signalgrass plant response rating (surinam grass; [5]): 0
Plant response rating, B. signalgrass (surinam grass; [2]): 5
Plant response rating, B. signalgrass (surinam grass; [3]): 8
Plant response rating, B. signalgrass (surinam grass; [6]): 8
B. signalgrass plant response rating (surinam grass; [4]): 8
B. signalgrass plant response rating (surinam grass; [7]): 0
B. signalgrass plant response rating (surinam grass; [8]): 4
Cocklebur plant response rating (cocklebur; [9]): 0
Cocklebur plant response rating (cocklebur; Rate 250 g/ha, scale 0 to 10, 0 no effect, 10 complete control): 0
Plant response rating, Cocklebur (cocklebur; [9]): 0
Plant response rating, Cocklebur (cocklebur; Rate 125 g/ha, scale 0 to 10 (0 no effect, 10 complete control)): 0
Plant response rating, Cocklebur (cocklebur; Rate 250 g/ha, scale of 0 to 10 where 0 is no effect and 10 is complete control): 0
Cocklebur plant response rating (cocklebur; Rate 125 g/ha, scale 0 to 10, 0 no effect, 10 complete control): 0
Cocklebur plant response rating (cocklebur; Rate 500 g/ha, 0 to 10 scale (0 no effect, 10 complete control)): 4
Corn plant response rating (corn; [1]): 0
Corn plant response rating (corn; [5]): 0
Plant response rating, Corn (corn; [2]): 0
Plant response rating, Corn (corn; [3]): 0
Plant response rating, Corn (corn; [6]): 0
Corn plant response rating (corn; [4]): 0
Corn plant response rating (corn; [7]): 0
Corn plant response rating (corn; [8]): 0
Crabgrass plant response rating (crabgrass; [1]): 3
Crabgrass plant response rating (crabgrass; [5]): 3
Plant response rating, Crabgrass (crabgrass; [2]): 8
Plant response rating, Crabgrass (crabgrass; [3]): 9
Plant response rating, Crabgrass (crabgrass; [6]): 9
Crabgrass plant response rating (crabgrass; [4]): 10
Crabgrass plant response rating (crabgrass; [7]): 3
Crabgrass plant response rating (crabgrass; [8]): 8
Giant foxtail plant response rating (giant foxtail; [1]): 0
Giant foxtail plant response rating (giant foxtail; [5]): 3
Plant response rating, Giant foxtail (giant foxtail; [2]): 10
Plant response rating, Giant foxtail (giant foxtail; [3]): 10
Plant response rating, Giant foxtail (giant foxtail; [6]): 10
Giant foxtail plant response rating (giant foxtail; [4]): 10
Giant foxtail plant response rating (giant foxtail; [7]): 3
Giant foxtail plant response rating (giant foxtail; [8]): 3
Redroot pigweed plant response rating (pigweed; [1]): 2
Redroot pigweed plant response rating (pigweed; [5]): 7
Plant response rating, Redroot pigweed (pigweed; [2]): 0
Plant response rating, Redroot pigweed (pigweed; [3]): 0
Plant response rating, Redroot pigweed (pigweed; [6]): 6
Redroot pigweed plant response rating (pigweed; [4]): 7
Redroot pigweed plant response rating (pigweed; [7]): 5
Redroot pigweed plant response rating (pigweed; [8]): 7
Soybean plant response rating (soybean; [1]): 5
Soybean plant response rating (soybean; [5]): 5
Plant response rating, Soybean (soybean; [2]): 0
Plant response rating, Soybean (soybean; [3]): 0
Plant response rating, Soybean (soybean; [6]): 0
Soybean plant response rating (soybean; [4]): 0
Soybean plant response rating (soybean; [7]): 5
Sugarbeets plant response rating (sugar beet; [1]): 0
Sugarbeets plant response rating (sugar beet; [5]): 0
Plant response rating, Sugarbeets (sugar beet; [2]): 0
Plant response rating, Sugarbeets (sugar beet; [3]): 0
Plant response rating, Sugarbeets (sugar beet; [6]): 0
Sugarbeets plant response rating (sugar beet; [4]): 5
Sugarbeets plant response rating (sugar beet; [7]): 0
Velvetleaf plant response rating (velvetleaf; [1]): 0
Velvetleaf plant response rating (velvetleaf; [5]): 0
Plant response rating, Velvetleaf (velvetleaf; [2]): 0
Plant response rating, Velvetleaf (velvetleaf; [3]): 0
Plant response rating, Velvetleaf (velvetleaf; [6]): 0
Velvetleaf plant response rating (velvetleaf; [4]): 0
Velvetleaf plant response rating (velvetleaf; [7]): 0
Wheat plant response rating (wheat; [1]): 0
Wheat plant response rating (wheat; [5]): 0
Plant response rating, Wheat (wheat; [2]): 0
Plant response rating, Wheat (wheat; [3]): 0
Plant response rating, Wheat (wheat; [6]): 0
Wheat plant response rating (wheat; [4]): 0
Wheat plant response rating (wheat; [7]): 0
Wild oats plant response rating (wild oat; [1]): 0
Wild oats plant response rating (wild oat; [5]): 0
Plant response rating, Wild oats (wild oat; [3]): 2
Plant response rating, Wild oats (wild oat; [6]): 6
Wild oats plant response rating (wild oat; [4]): 7
Wild oats plant response rating (wild oat; [7]): 0
Nutsedge plant response rating (purple nutsedge; [1]): 0
Nutsedge plant response rating (purple nutsedge; [5]): 0
Plant response rating, Nutsedge (purple nutsedge; [2]): 0
Plant response rating, Nutsedge (purple nutsedge; [3]): 0
Plant response rating, Nutsedge (purple nutsedge; [6]): 0
Nutsedge plant response rating (purple nutsedge; [4]): 0
Nutsedge plant response rating (purple nutsedge; [7]): 0
Nutsedge plant response rating (purple nutsedge; [8]): 0
Rice plant response rating (rice; [1]): 0
Rice plant response rating (rice; [10]): 0
Rice plant response rating (rice; [11]): 0
Rice plant response rating (rice; [12]): 2
Plant response rating, Rice (rice; [13]): 0
Rice plant response rating (rice; [14]): 0
Rice plant response rating (rice; [15]): 0
Rice plant response rating (rice; [16]): 0
Ducksalad plant response rating (duck salad; [1]): 0
Ducksalad plant response rating (duck salad; [10]): 0
Ducksalad plant response rating (duck salad; [11]): 0
Ducksalad plant response rating (duck salad; [12]): 0
Plant response rating, Ducksalad (duck salad; [13]): 0
Ducksalad plant response rating (duck salad; [14]): 0
Ducksalad plant response rating (duck salad; [15]): 0
Ducksalad plant response rating (duck salad; [16]): 0

Reference: patent publication US6737383B1, “Herbicidal oxadiazolidines” (priority 1999, dated 2004)
